From patent publication US8455663B2, “Halosubstituted aryloxyalkylimidazolines for use as pesticides” (Syngenta Crop Protection LLC, priority 2007, dated 2013) come the findings set out here.

Common to all, as to assay type: in vivo
In one assay the test system is Tetranychus urticae. In words: Tetranychus urticae (two-spotted spider mite) bean leaf disc spray test. The following applies: Tetranychus urticae, foliar, 192 h; 200 ppm spray on bean leaf discs; mixed ages; 8 days; egg, larval and adult mortality; read-out: control of Tetranychus urticae. From the text:
4.4 Tetranychus Urticae (Two-Spotted Spider Mite):
4.4.1 Bean leaf discs on agar in 24-well microtiter plates were sprayed with test solutions at an application rate of 200 ppm. After drying, the leaf discs are infested with mite populations of mixed ages. 8 days later, discs are checked for egg mortality, larval mortality, and adult mortality.

Assay [1] relates to Myzus persicae. Briefly: Myzus persicae (green peach aphid) pea seedling root uptake test. The following applies: Myzus persicae, 144 h; 24 ppm test solution, roots of infested pea seedlings; 6 days; mortality; read-out: control of Myzus persicae. The text has this:
4.3 Myzus Persicae (Green Peach Aphid):
Roots of pea seedlings, infested with an aphid population of mixed ages, were placed directly in the test solutions of 24 ppm. 6 days after introduction, samples were checked for mortality.

The test system of a further assay is T. Urticae. In words: Tetranychus urticae bean leaf disc test, comparison with prior art compounds A and B. Particulars: 12.5 ppm spray on bean leaf discs; mixed ages; 8 days; egg, larval and adult mortality. The text has this: 4.4.2 In a further test, the efficacy of one of the compounds giving 100% control in Example 4.4.1 above was compared to the efficacy of imidazoline compounds from the prior art (compounds A and B).
Bean leaf discs on agar in 24-well microtiter plates were sprayed with test solutions at an application rate of 12.5 ppm. After drying, the leaf discs are infested with mite populations of mixed ages. 8 days later, discs are checked for egg mortality, larval mortality, and adult mortality.

For assay [2], the system named is Myzus persicae. In words: Myzus persicae (green peach aphid) sunflower leaf disc spray test. Particulars: Myzus persicae, foliar, 144 h; 200 ppm spray on sunflower leaf discs; mixed ages; 6 DAT; mortality; read-out: control of Myzus persicae. Here is the method: 4.2 Myzus Persicae (Green Peach Aphid):
Sunflower leaf discs were placed on agar in a 24-well microtiter plate and sprayed with test solutions at an application rate of 200 ppm. After drying, the leaf discs were infested with an aphid population of mixed ages. After an incubation period of 6 DAT, samples were checked for mortality.

Another assay deals with Heliothis virescens. In words: Heliothis virescens (tobacco budworm) egg/larvae test on artificial diet. Particulars: Heliothis virescens, 96 h; 200 ppm by pipetting on eggs (0-24 h old) on artificial diet; 4 days; egg mortality, larval mortality, growth regulation; read-out: control of Heliothis virescens. Here is the method: 4.1 Heliothis Virescens (Tobacco Budworm):
Eggs (0-24 h old) were placed in 24-well microtiter plate on artificial diet and treated with test solutions at an application rate of 200 ppm by pipetting. After an incubation period of 4 days, samples were checked for egg mortality, larval mortality, and growth regulation.

Each structure is given as a SMILES string.

As for `CCC(Oc1cccc(C(F)(F)F)c1Cl)C1=NCCN1` (centres unmarked) [Compound 1.001, 2-[1-(2-Chloro-3-trifluormethyl-phenoxy)-propyl]-4,5-dihydro-1H-imidazole], the values for the pest or weed control at 200 ppm with Tetranychus urticae, in the assay on Myzus persicae [2] and in the assay with Heliothis virescens were 100%, 100% and 50%, respectively. Moreover, the pest or weed control at 24 ppm in the assay on Myzus persicae [1] came out at 100%. In the assay with T. Urticae, this compound showed a Control % of 80%.
